Among the data in patent US11702422B2, “Imidazopyridazines as modulators of IL-17” (Janssen Pharmaceutica NV, priority 2020, dated 2023) are IC50 values, retold here.

For assay [1], the target named is IL-17A(FLAG-Tagged): IL-17RA(His-Tagged) (Homo sapiens, UniProt Q16552, K93Q). Put plainly: IL-17A(FLAG-Tagged): IL-17RA(His-Tagged) Binding Disruption Eu-HTRF Assay. Particulars: IL-17A/IL-17RA binding disruption, simple average if tested more than once. In a few lines: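 IC50 comes from a one-site competition fit of the HTRF 665/620 nm ratio. Compound dilutions (2-fold, 22 points) were held 1 h rt with FLAG-tagged IL-17A dimer, then His-tagged IL-17RA plus Eu-cryptate anti-FLAG and D2 anti-His antibodies were added for 2 h rt.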

For assay [2], the system named is IL-17A-induced G-CSF production in human normal keratinocyte (NHK). Nature of the assay: NHK Assay: IL-17A-induced G-CSF production in human normal keratinocytes. The settings on record: Homo sapiens, Keratinocyte, 24 h, adult normal human keratinocytes, IL-17A 5 ng/mL, simple average if tested more than once. In kind it is cell-based. In a few lines:
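Adult NHK, 3000-4000 cells/well; rhIL-17A + titrated cpd preincubated 1 h rt, then onto cells. Final: IL-17A 5 ng/mL, DMSO 0.2%, 5% FBS. 24 h, 37° C. G-CSF in supernatant by HTRF vs standard curve; IC50. Viability by CellTiter-Glo vs DMSO.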

UniProt Q16552, sequence (Q16552 with tags, fused parts or gaps K93Q): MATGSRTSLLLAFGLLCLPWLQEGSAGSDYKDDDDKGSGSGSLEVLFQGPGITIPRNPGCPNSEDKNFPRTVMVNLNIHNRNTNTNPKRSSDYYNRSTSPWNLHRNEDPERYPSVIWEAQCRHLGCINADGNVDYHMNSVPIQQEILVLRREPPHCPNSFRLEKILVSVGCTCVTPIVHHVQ

The IC50 is the concentration needed to halve the response being measured. A higher IC50 goes with a need for much substance. Take `O=C(CCC(F)(F)F)N[C@@H](c1cnn2cc([C@@H](NC(=O)c3ncccc3OCC(F)(F)F)C3CCC(F)(F)CC3)nc2c1)C1CC1` [Example 419, N—((S)-(7-((R)-Cyclopropyl(4,4,4-trifluorobutanamido)methyl)imidazo[1,2-b]pyridazin-2-yl)(4,4-difluorocyclohexyl)methyl)-3-(2,2,2-trifluoroethoxy)picolinamide]: the values for the IC50 in assay [1] and in assay [2] were 1300 nM and > 20000 nM, respectively.

Take `N#Cc1cncc(C(=O)N[C@H](c2cn3ncc([C@H](NC(=O)CCC(F)(F)F)C4CC4)cc3n2)C2CCC(F)(F)CC2)c1` [Example 450, 5-Cyano-N—((S)-(7-((R)-cyclopropyl(4,4,4-trifluorobutanamido)methyl)imidazo[1,2-b]pyridazin-2-yl)(4,4-difluorocyclohexyl)methyl)nicotinamide]: the IC50 came to 810 nM in assay [1] and 1700 nM in assay [2].

Consider `O=C(CCC(F)(F)F)N[C@@H](c1cnn2cc([C@@H](NC(=O)c3cncc(F)c3)C3CCC(F)(F)CC3)nc2c1)C1CC1` [Example 451, N—((S)-(7-((R)-Cyclopropyl(4,4,4-trifluorobutanamido)methyl)imidazo[1,2-b]pyridazin-2-yl)(4,4-difluorocyclohexyl)methyl)-5-fluoronicotinamide], for which the figures for the IC50 in assay [1] and in assay [2] were 120 nM and 830 nM, respectively.

Regarding `CCc1cncc(C(=O)N[C@H](c2cn3ncc([C@H](NC(=O)CCC(F)(F)F)C4CC4)cc3n2)C2CCC(F)(F)CC2)c1` [Example 452, N—((S)-(7-((R)-Cyclopropyl(4,4,4-trifluorobutanamido)methyl)imidazo[1,2-b]pyridazin-2-yl)(4,4-difluorocyclohexyl)methyl)-5-ethylnicotinamide], the results for the IC50 in assay [1] and in assay [2] were 100 nM and 570 nM, respectively.

Regarding `CCc1ccnc(C(=O)N[C@H](c2cn3ncc([C@H](NC(=O)CCC(F)(F)F)C4CC4)cc3n2)C2CCC(F)(F)CC2)c1` [Example 453, N—((S)-(7-((R)-Cyclopropyl(4,4,4-trifluorobutanamido)methyl)imidazo[1,2-b]pyridazin-2-yl)(4,4-difluorocyclohexyl)methyl)-4-ethylpicolinamide], the concentration for half-maximal inhibition (IC50) in assay [1] is 150 nM; in assay [2], 3900 nM.

In the case of `Cc1cncc(C(=O)N[C@H](c2cn3ncc([C@H](NC(=O)CCC(F)(F)F)C4CC4)cc3n2)C2CCC(F)(F)CC2)c1` [Example 454, N—((S)-(7-((R)-Cyclopropyl(4,4,4-trifluorobutanamido)methyl)imidazo[1,2-b]pyridazin-2-yl)(4,4-difluorocyclohexyl)methyl)-5-methylnicotinamide], the half-maximal inhibitory concentration (IC50) was determined as 320 nM in assay [1] and 3400 nM in assay [2].

On to `O=C(CCC(F)(F)F)N[C@@H](c1cnn2cc([C@@H](NC(=O)c3cncc(C(F)F)c3)C3CCC(F)(F)CC3)nc2c1)C1CC1` [Example 455, N—((S)-(7-((R)-Cyclopropyl(4,4,4-trifluorobutanamido)methyl)imidazo[1,2-b]pyridazin-2-yl)(4,4-difluorocyclohexyl)methyl)-5-(difluoromethyl)nicotinamide], for which the IC50 in assay [1] turned out to be 130 nM; in assay [2], 850 nM.

Regarding `O=C(CCC(F)(F)F)N[C@@H](c1cnn2cc([C@@H](NC(=O)c3ccccn3)C3CCC(F)(F)CC3)nc2c1)C1CC1` [Example 456, N—((S)-(7-((R)-Cyclopropyl(4,4,4-trifluorobutanamido)methyl)imidazo[1,2-b]pyridazin-2-yl)(4,4-difluorocyclohexyl)methyl)picolinamide], the IC50 in assay [1] was 780 nM; in assay [2], > 20000 nM.

In the case of `O=C(CCC(F)(F)F)N[C@@H](c1cnn2cc([C@@H](NC(=O)c3ccnnc3)C3CCC(F)(F)CC3)nc2c1)C1CC1` [Example 457, N—((S)-(7-((R)-Cyclopropyl(4,4,4-trifluorobutanamido)methyl)imidazo[1,2-b]pyridazin-2-yl)(4,4-difluorocyclohexyl)methyl)pyridazine-4-carboxamide], the IC50 in assay [1] is 1200 nM; in assay [2], 2900 nM.
